# In patent EP0717990B1, “COMPOSITION FOR REMEDYING DRUG DEPENDENCE” (TAISHO PHARMACEUTICAL CO. LTD, priority 1993, dated 1995):
# Where two headings read alike, the source gives them in different places.
# Columns and labels:
# 5-HT1A = molecular target: T1, 5-HT1A (Homo sapiens, UniProt P08908); conditions: result in words; cited from earlier work
# T1 sequence (P08908 1-422): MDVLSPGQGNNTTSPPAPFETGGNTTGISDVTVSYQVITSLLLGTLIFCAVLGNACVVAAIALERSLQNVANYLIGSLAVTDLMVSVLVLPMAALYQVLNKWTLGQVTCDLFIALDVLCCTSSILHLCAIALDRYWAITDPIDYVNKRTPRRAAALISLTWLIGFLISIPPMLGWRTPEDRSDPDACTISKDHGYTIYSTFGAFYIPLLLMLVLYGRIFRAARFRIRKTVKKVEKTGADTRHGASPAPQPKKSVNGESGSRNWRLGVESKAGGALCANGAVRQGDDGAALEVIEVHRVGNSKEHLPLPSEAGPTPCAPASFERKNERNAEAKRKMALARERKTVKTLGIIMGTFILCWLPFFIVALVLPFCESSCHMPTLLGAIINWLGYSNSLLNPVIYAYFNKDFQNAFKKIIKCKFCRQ
# D2 = D2 (Homo sapiens, UniProt P14416); conditions: result in words; cited from earlier work
# Chain of D2 (P14416 whole entry): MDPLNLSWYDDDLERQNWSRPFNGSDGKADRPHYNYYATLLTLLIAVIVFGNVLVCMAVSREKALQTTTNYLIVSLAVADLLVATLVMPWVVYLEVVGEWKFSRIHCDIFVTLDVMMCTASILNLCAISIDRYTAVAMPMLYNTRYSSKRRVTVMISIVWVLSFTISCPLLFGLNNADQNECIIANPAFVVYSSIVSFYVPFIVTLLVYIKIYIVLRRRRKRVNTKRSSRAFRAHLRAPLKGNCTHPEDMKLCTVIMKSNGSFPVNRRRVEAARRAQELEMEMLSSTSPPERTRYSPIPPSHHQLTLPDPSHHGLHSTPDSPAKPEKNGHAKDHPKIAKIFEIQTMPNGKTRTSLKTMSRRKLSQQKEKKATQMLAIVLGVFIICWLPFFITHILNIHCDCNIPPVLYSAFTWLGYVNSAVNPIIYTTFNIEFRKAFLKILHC
# D1 = D1 (Homo sapiens, UniProt P21728); conditions: result in words; cited from earlier work
# Chain of D1 (P21728 whole entry): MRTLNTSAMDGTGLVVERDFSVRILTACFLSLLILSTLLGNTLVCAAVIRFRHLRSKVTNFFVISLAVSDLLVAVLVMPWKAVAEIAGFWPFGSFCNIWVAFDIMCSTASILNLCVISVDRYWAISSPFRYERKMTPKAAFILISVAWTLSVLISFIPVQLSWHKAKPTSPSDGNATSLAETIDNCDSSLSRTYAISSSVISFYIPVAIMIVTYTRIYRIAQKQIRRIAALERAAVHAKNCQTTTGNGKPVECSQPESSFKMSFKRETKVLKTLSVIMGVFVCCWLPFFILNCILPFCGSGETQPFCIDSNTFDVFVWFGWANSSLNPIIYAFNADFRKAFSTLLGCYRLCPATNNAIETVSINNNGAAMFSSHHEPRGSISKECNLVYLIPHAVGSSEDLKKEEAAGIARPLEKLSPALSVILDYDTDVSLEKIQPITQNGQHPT
# sigma receptor = conditions: result in words; cited from earlier work
# 5-HT2 = 5-HT2 (Homo sapiens, UniProt P28223); conditions: result in words; cited from earlier work
# Chain of 5-HT2 (P28223 whole entry): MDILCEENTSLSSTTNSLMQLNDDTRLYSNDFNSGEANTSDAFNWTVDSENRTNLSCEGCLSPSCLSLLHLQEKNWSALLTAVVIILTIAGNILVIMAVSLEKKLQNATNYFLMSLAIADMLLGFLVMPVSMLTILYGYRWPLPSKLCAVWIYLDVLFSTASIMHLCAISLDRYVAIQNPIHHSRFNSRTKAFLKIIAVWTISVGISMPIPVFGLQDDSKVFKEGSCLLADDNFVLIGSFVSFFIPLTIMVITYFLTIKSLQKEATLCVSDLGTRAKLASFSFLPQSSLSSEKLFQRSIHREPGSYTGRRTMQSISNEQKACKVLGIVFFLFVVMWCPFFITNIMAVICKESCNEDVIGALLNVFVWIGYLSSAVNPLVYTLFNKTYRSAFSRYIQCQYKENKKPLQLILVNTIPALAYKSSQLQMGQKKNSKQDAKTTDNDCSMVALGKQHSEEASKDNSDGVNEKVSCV
# [1] = tested on: cocaine-dependent monkeys; experiment: Effect on cocaine-dependent monkeys (drug self-administration); type: in vivo, male cynomolgus monkeys; conditions: cocaine intake per day, cocaine-dependent cynomolgus monkeys
# Protocol: [Investigation on an effect on cocaine-dependent monkeys]
# A test was carried out according to the method described in Drug and Alcohol Dependence, 1989, Vol. 24, pp. 135-142.
# A catheter was allowed to indwell chronically in the vein of each monkey and the investigation was carried out by a drug self-administration experimental method in which a definite amount of a liquid drug was automatically poured according to a reinforcement schedule when the animal pushed a lever. When the cocaine intake per day was 20 mg/kg/day or more for 10 consecutive weeks or more, it was judged that the dependence was caused.
# alcohol dependence = experiment: Effect on alcohol dependence (conditioned place preference in shuttle box); type: in vivo, male Wistar strain rats; conditions: rats; for Desire-arising effect for ethanol treatment compartment: 30 minutes before ethanol administration
# Protocol: [Investigation on an effect on alcohol dependence]
# A test was carried out according to the method described in Pharmacology Biochemistry and Behavior, Vol. 35, pp. 485-487 (1990).
# Compound B used according to the present invention was administered in a dose of 0.1 or 1 mg/kg 30 minutes before ethanol administration in each run.
# An experimental apparatus was a 2-compartments box (width 30 cm, length 60 cm, height 30 cm) made of acrylic plates and divided equally into a white compartment and a black compartment by a guillotine door provided in the middle of the box. In addition, the floor of the box had been made non-slip in the white compartment and slippery in the black compartment, that is, the box used was a so-called shuttle box capable of giving both a visual stimulus of black and white and a tactile stimulus of the floor.
# Conditioning was carried out once a day for 6 days. Each rat was treated with ethanol (0.5 or 1 g/kg) or physiological saline and then confined in one of the compartment for 50 minutes. The next day, the rat was subjected to a treatment different from that carried out on the previous day, and then confined in the other compartment for 50 minutes. The above procedure was repeated three times. For minimizing the influence of the difference of the conditioning procedure on the result, a counter balance method was adopted, that is, there were employed the following 4 combinations of the ethanol treatment or the physiological saline treatment and the white or black compartment: • 1) ethanol and white; physiological saline and black on the next day, • 2) physiological saline and black; ethanol and white on the next day, • 3) ethanol and black; physiological saline and white on the next day, and • 4) physiological saline and white; ethanol and black on the next day.
# As a control group, a group which had been given physiological saline instead of being subjected to ethanol treatment was conditioned in the same manner as above.
# After 6 days of the conditioning procedure, each run of measuring the length of stay in each compartment was carried out for 15 minutes. Neither ethanol nor physiological saline was administered to the conditioned rats. In the apparatus, a platform (width 2 cm, length 5 cm) made of a wire net and having a gray color intermediate between white and black was set in the middle of the box, i.e., the compartmenting portion. The length of stay was measured as follows: each rat was placed on the platform, and then a time for which the forefeet and head of the rat were in the black or white compartment was measured as a length of stay in the black or white compartment, respectively, for 15 minutes after the rat got down the platform to become able to come from or go to any of the white and black compartments freely. The desire-arising effect for the drug treatment compartment, i.e., the place preference was determined in terms of a value obtained by subtracting the length of stay in the physiological saline treatment compartment from the length of stay in the drug treatment compartment.
# [2] = tested on: phencyclidine (PCP)-induced abnormal behavior; experiment: Antagonism against phencyclidine (PCP)-induced abnormal behavior (head weaving); conditions: Rattus norvegicus, read-out: ED50 value (mg/kg)
# [3] = Single-administration toxicity test; parameters: species or system Wistar strain rats; conditions: Wistar, rat, in vivo, oral, observation 14 days, read-out: Approximate LD50
# Protocol: [Single-administration toxicity test]
# Kind of animal: Wistar strain rats, male and female, 6 to 7 weeks old (at the time of administration). Number of animals: 5 males and 5 females in each group. Administration route: Oral. Number of groups: male 6 groups, female 6 groups. Administered drug: N,N-di-n-propyl-2-[4-methoxy-3-(2-phenylethoxy)phenyl]ethylamine hydrochloride. Dosage form: a solution in distilled water. Dose: male 312 to 891 mg/kg, female 240 to 685 mg/kg (common ratio […]). Observation time: 14 days.
# [4] = orally administered in a dose of 0.1 mg/kg
structure (smiles),measurement,setting,value
"CCCN(CCC)CCc1ccc(OC)c(OCCc2ccccc2)c1 [N,N-dipropyl-2-[4-methoxy-3-(2-phenylethoxy)phenyl]ethylamine]",affinity for 5-HT1A,5-HT1A,low affinity
same,affinity for D2,D2,low affinity
same,affinity for D1,D1,low affinity
same,affinity to sigma receptor,sigma receptor,high affinity
same,affinity for 5-HT2,5-HT2,low affinity
"CCCN(CCC)CCc1ccc(OC)c(OCCc2ccccc2)c1.Cl [Compound B, N,N-di-n-propyl-2-[4-methoxy-3-(2-phenylethoxy)phenyl]ethylamine hydrochloride]",Percentage of decrease in cocaine intake (%),[1]; [4],89.3%
same,ethanol dependence,"alcohol dependence; 0.1 or 1 mg/kg, result in words",suppressed the ethanol dependence in a dose-dependent manner
same,Desire-arising effect for ethanol treatment compartment,alcohol dependence; Ethanol (0.5 g/kg) + B 0.1 mg/kg,104 ± 41
same,Desire-arising effect for ethanol treatment compartment,alcohol dependence; Ethanol (0.5 g/kg) + B 1 mg/kg,11 ± 32
same,Desire-arising effect for ethanol treatment compartment,alcohol dependence; Ethanol (1 g/kg) + B 0.1 mg/kg,101 ± 47
same,Desire-arising effect for ethanol treatment compartment,alcohol dependence; Ethanol (1 g/kg) + B 1 mg/kg,9 ± 12
same,ED50,[2],0.12 mg/kg
same,LD50 at 14 days,[3]; female rats,312 to 406 mg/kg
same,LD50 at 14 days,[3]; male rats,685 to 891 mg/kg
"CCCN(CCC)CCc1cc(Cl)ccc1OCCc1ccccc1.O=C(O)C(=O)O [A, N,N-di-n-propyl-2-[5-chloro-2-(2-phenylethoxy)phenyl]ethylamine oxalate]",Percentage of decrease in cocaine intake (%),[1]; [4],62.6%
same,ED50,[2],0.3 mg/kg
"CCCN(CCC)CCCc1ccc(OC)c(OCCc2ccccc2)c1.Cl [C, N,N-di-n-propyl-3-[4-methoxy-3-(2-phenylethoxy)phenyl]propylamine hydrochloride]",Percentage of decrease in cocaine intake (%),[1]; [4],77.1%
same,ED50,[2],0.22 mg/kg
"CCCN(CCC)CCc1cccc(OC)c1OCCc1ccccc1.Cl [D, N,N-di-n-propyl-2-[3-methoxy-2-(2-phenylethoxy)phenyl]ethylamine hydrochloride]",Percentage of decrease in cocaine intake (%),[1]; [4],49.3%
same,ED50,[2],0.27 mg/kg
"C[C@@H]1CN(CCCn2c3ccccc3c3ccccc32)C[C@H](C)N1 [Rimcazole, reference compound]",Percentage of decrease in cocaine intake (%),[1]; orally administered in a dose of 10 mg/kg,28.0%
same,ED50,[2],28 mg/kg
